Test results as given in patent publication US20050031600A1, “Cardiac function by mesenchymal stem cell transplantation” (Genzyme Corporation, priority 1998, published 2005).

Test system: mesenchymal stem cells (MSCs)
Test: Cardiomyogenic differentiation of cultured rat MSCs in vitro (myotube formation, immunofluorescent staining)
Assay type: cell-based
Details: for staining for cardiac specific troponin I / staining for myosin heavy chain: cultured MSCs, 21st day
Procedure: An incision was made in the hindlimb of each rat while the rat was under general anesthesia. An 18-gauge needle was punctured to the bone and used to aspirate bone marrow (1 ml) from the tibia. The marrow aspirate was transferred to sterile tubes, which contained 10 ml Iscove's modified Dulbecco medium (TMDM; Gibco Laboratories, Gaithersberg, Md.), containing antibiotics (penicillin G, 100 U/ml; streptomycin, 100 μg/ml) and 1000 IU heparin. The marrow cell suspension was dispersed into single cells using a 23-gauge needle. The tube was spun at 2000 rpm for 5 min to pellet the cells. After removing the supernatant and fat layer, the cell pellet was re-suspended with IMDM. To separate bone marrow cells and red blood cells, the density centrifugation method described by Yablonka-Reuveni and Nameroff (Histochemistry, 87:27-38, 1987) was used. First, the cell suspension was loaded onto 20% and 60% Percoll (Sigma Chemical Co., St. Louis, Mo.) layers, which were piled up in a tube, and the tube was centrifuged at 14000 rpm. for 10 minutes. […] The cells were centrifuged at 2,000 rpm for 10 minutes and then washed with phosphate-buffered saline (PBS) to remove the Percoll. This was repeated and then the cell pellet was resuspended in culture medium and used for in vitro and in vivo studies.
To identify the optimal conditions for inducing mesenchymal stem cell (MSC) differentiation by 5-azacytidine, the cells were cultured in IMDM containing 10% fetal bovine serum and antibiotics, with 5-azacytidine (5-aza: 0.1, 1, 5, 10, 20, and 100 μM; n=6 for each group), with insulin (1 nM; n=6), or with TGFβ1 (10 ng/ml; n=6). The cells were incubated with these agents for 24 hours and then washed with PBS. The medium was changed twice a week for 21 days. Almost all the hematopoietic stem cells were washed away with the medium changes.
To test the effect of cell passaging on cardiomyogenic differentiation of MSCs, samples of MSCs, prepared as described above, were passaged once prior to preparing the cell cultures described below. In this case, the term passaging refers to the distribution of cultured cells growing in a culture dish into new dishes after the cells reach confluence (i.e. when the cells contact each other and cover the surface of the dish).
One group of the MSCs, prepared as above, was, in turn, divided into two groups: A (control) and B, each group having 6 samples. Cells of the control group, A, were cultured for 7 days in IMDM containing 10% fetal bovine serum and antibiotics. The MSCs of group B were initially cultured for 2 days in the above medium after which 5-aza (10 μM) was added to the culture medium. After a 24 hour exposure to 5-aza, the compound was washed out of the culture and the cells were culturing in the medium described above for 4 days more.
Following the above culturing period, the cells from both groups were stained by immunocytofluorescence to detect the presence of cardiac-specific troponin I (a contractile apparatus-specific protein found only in cardiomyocytes) or muscle-specific myosin heavy chain. Briefly, the staining method entailed washing the cells with phosphate-buffer saline (PBS), followed by incubation in methanol at −20° C. for 20 minutes. The dishes were then washed with PBS three times. Monoclonal antibodies specific against cardiac troponin I (Spectral Diagnostic, Toronto) or against myosin heavy chain (Biogenesis, USA), were added to the cells and the dishes were incubated at 37° C. for 1 hour. To remove unbound antibody, the dishes were gently shaken at room temperature and washed three times with PBS. A rabbit antibody conjugated with FITC (fluorescein isothiocyanate) against mouse IgG was added to the dishes, after which incubation and rinsing with PBS were performed as described above for the first antibody. Observations were made and photos were taken. […]

[1] = cultured bone marrow MSCs, 5-aza added on third day, seen on 10th day of culture

| Molecule | myotube formation (5 μM 5-aza for 24 hours) | number of MSCs in cultures (10 μM 5-aza added on first or second day compared with third day after isolation) | number of myotubes, visually determined (10 μM 5-aza compared with 5 μM 5-aza) | myotube formation (10 μM 5-aza for 24 hours) | necrotic cells (MSCs incubated with 5-aza at 20 μM) | necrotic cells (MSCs incubated with 5-aza at 100 μM) | differentiation into cardiomyocyte-like cells (myotube formation) (MSCs passaged once, then 5-aza 10 μM for 24 hours) | cell morphology (concentrations of 5-aza lower than 5 μM) | staining for cardiac specific troponin I | staining for myosin heavy chain | myotube formation [1] |
| --- | --- | --- | --- | --- | --- | --- | --- | --- | --- | --- | --- |
| Nc1ncn([C@@H]2O[C@H](CO)[C@@H](O)[C@H]2O)c(=O)n1 [5-aza, 5-azacytidine] | myotube formation was present | much smaller | greater | myotube formation was present | more than 50% | more than 50% | did not differentiate into cardiomyocyte-like cells | morphologically similar to the control cells | stained positively | stained positively | formed multinucleated myotubes |
| TGFβ1 | – | – | – | – | – | – | – | – | negative | negative | did not form myotubes |
| insulin | – | – | – | – | – | – | – | – | negative | negative | did not form myotubes |
